Here are results for 6 compounds from PMC3843973 (Journal of medicinal chemistry, 2013).

Molecules are shown by their SMILES. Read-outs that look alike come from different tables or passages of the source.

Data set [1] concerns the target rat α3β4 nAChR (Rattus norvegicus, UniProt P04757+P12392). The conditions noted are these: cited from earlier work.
For data set [2], the target named is human α4β2-nAChRs (Homo sapiens, UniProt P17787+P43681). The data set is classed as cell-based. The conditions noted are these: mixture of HS and LS α4β2-nAChRs; 10 min preincubation.
The target in data set [3] is rat α2β4 nAChR (Rattus norvegicus, UniProt P12389+P12392). The conditions noted are these: read-out: Ki α2β4; cited from earlier work.
Data set [4] concerns the target α4β2*-nAChR, prepared from rat forebrain (Rattus norvegicus, UniProt P09483+P12390). The conditions noted are these: read-out: Ki α4β2*; cited from earlier work.
The target of data set [5] is rat α3β2 nAChR (Rattus norvegicus, UniProt P04757+P12390). The conditions noted are these: read-out: Ki α3β2; cited from earlier work.
For data set [6], the target named is rat α4β2 nAChR (Rattus norvegicus, UniProt P09483+P12390). The conditions noted are these: read-out: Ki α4β2; cited from earlier work.
Data set [7] addresses rat α2β2 nAChR (Rattus norvegicus, UniProt P12389+P12390). The conditions noted are these: read-out: Ki α2β2; cited from earlier work.
Data set [8] concerns the target rat α4β4 nAChR (Rattus norvegicus, UniProt P09483+P12392). To be noted: read-out: Ki α4β4; cited from earlier work.
Data set [9] has as its system BALB/cJ male mice. The conditions noted are these: mouse.
Data set [10] in a line: chemical stability on storage. In kind it is physicochemical. The conditions noted are these: stored at room temperature for several months.
Data set [11] is described as follows: bidirectional Caco-2 cell permeability assay. The data set is classed as in vitro ADME. The conditions noted are these: human, Caco-2, pH 7.4. A general note: Passage across Caco-2 layers is used to estimate intestinal permeability.
The test system of data set [12] is Caco-2 cells. Briefly: bidirectional Caco-2 cell permeability assay. In kind it is in vitro ADME. The conditions noted are these: Caco-2 bidirectional.
For data set [13], the system named is strains TA98, TA100, TA1535, and TA1537. Briefly: bacteria reversion mutation assay. The conditions noted are these: strain TA1537 in the presence of S9 fraction, 50 and 100 μM.

Sequence of rat α3β4 nAChR (P12392 21-495): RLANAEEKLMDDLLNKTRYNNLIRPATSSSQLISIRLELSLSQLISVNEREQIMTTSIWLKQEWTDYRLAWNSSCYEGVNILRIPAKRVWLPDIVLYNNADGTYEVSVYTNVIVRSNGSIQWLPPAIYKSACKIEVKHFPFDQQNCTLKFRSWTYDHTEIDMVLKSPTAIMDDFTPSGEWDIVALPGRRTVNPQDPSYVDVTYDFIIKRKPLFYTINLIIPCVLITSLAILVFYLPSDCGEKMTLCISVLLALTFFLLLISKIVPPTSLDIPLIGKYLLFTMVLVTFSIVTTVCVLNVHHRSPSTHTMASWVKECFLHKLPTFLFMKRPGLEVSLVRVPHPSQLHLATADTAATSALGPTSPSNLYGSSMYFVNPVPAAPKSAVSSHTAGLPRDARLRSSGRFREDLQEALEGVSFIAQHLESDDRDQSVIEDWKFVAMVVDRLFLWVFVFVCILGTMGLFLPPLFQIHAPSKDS
Sequence of rat α3β4 nAChR (P04757 26-499): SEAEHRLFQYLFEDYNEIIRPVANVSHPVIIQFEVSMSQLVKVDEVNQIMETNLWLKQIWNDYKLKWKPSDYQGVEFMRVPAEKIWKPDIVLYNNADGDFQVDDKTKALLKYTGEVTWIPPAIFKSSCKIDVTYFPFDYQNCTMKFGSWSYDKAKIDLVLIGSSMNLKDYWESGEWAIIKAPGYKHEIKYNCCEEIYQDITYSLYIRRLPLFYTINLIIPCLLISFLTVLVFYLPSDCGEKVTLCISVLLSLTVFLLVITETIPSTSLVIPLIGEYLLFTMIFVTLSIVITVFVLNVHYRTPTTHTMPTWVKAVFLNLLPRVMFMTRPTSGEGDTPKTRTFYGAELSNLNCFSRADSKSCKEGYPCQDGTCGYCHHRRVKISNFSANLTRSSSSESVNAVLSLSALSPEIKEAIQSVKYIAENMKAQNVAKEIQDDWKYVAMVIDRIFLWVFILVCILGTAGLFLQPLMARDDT
Sequence of α4β2*-nAChR, prepared from rat forebrain (P09483 31-630): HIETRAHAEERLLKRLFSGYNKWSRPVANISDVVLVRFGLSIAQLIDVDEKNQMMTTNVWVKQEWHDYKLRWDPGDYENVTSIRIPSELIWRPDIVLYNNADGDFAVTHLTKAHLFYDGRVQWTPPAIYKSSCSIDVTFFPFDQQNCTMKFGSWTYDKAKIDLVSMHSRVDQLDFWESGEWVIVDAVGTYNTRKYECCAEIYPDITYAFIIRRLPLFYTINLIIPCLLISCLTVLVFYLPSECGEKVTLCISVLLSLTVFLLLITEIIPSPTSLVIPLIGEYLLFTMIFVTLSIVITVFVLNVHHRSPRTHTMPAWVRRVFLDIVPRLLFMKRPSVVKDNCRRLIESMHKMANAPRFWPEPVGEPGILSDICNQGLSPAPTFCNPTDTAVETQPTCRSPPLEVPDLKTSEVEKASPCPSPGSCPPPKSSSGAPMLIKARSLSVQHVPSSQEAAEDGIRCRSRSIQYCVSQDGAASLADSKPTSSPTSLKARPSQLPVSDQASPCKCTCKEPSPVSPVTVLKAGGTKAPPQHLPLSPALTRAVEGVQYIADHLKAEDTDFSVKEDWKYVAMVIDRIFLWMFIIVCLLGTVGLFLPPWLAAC
Sequence of α4β2*-nAChR, prepared from rat forebrain (P12390 25-500): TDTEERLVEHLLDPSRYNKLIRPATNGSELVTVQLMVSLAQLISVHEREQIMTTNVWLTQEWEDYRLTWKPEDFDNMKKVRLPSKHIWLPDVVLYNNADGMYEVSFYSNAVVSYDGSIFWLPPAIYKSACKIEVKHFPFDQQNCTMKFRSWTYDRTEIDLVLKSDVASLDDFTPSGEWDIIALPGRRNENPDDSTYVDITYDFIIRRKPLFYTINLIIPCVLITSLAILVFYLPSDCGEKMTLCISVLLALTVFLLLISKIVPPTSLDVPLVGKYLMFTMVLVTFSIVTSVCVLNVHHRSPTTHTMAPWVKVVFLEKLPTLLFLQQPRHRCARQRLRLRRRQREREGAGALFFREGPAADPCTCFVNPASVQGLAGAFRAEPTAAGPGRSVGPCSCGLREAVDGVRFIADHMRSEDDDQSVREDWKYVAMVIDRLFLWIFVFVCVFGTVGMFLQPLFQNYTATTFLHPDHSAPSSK
Sequence of rat α2β4 nAChR (P12389 28-511): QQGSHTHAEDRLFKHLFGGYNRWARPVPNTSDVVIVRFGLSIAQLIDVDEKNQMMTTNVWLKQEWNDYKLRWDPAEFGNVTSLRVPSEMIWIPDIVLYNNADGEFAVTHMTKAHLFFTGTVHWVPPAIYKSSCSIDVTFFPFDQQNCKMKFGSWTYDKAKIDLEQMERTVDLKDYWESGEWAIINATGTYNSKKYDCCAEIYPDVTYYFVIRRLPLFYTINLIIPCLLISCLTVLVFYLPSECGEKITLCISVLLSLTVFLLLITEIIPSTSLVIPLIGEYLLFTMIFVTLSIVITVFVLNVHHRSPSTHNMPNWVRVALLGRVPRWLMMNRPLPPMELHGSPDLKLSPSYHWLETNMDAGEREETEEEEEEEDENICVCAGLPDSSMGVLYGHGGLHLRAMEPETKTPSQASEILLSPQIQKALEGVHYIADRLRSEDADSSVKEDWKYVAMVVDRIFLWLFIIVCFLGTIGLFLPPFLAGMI
Sequence of rat α2β4 nAChR (P12392 21-495): as the sequence (P12392 21-495) above
Sequence of rat α2β2 nAChR (P12389 28-511): as the sequence (P12389 28-511) above
Sequence of rat α2β2 nAChR (P12390 25-500): as the sequence (P12390 25-500) above
Sequence of rat α4β4 nAChR (P12392 21-495): as the sequence (P12392 21-495) above
Sequence of rat α4β4 nAChR (P09483 31-630): as the sequence (P09483 31-630) above
Sequence of rat α4β2 nAChR (P12390 25-500): as the sequence (P12390 25-500) above
Sequence of rat α4β2 nAChR (P09483 31-630): as the sequence (P09483 31-630) above
Sequence of rat α3β2 nAChR (P12390 25-500): as the sequence (P12390 25-500) above
Sequence of rat α3β2 nAChR (P04757 26-499): as the sequence (P04757 26-499) above
Sequence of human α4β2-nAChRs (P43681 29-627 limits assumed): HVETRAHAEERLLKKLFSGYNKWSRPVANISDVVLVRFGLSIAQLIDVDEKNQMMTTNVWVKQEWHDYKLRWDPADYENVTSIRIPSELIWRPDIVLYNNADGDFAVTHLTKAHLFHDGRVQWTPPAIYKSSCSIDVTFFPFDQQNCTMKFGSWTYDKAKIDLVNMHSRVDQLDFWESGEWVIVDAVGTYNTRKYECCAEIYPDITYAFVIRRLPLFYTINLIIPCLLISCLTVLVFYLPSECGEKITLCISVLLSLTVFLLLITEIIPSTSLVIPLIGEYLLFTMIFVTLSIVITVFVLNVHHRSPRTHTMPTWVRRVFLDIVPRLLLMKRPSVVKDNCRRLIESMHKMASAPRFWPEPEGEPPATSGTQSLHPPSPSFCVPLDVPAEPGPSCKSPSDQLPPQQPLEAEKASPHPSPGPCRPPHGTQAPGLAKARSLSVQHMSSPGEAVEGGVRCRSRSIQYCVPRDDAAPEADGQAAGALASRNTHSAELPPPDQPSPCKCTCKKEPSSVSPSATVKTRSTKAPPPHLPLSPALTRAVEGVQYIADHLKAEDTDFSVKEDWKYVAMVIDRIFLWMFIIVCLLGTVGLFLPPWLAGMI
Sequence of human α4β2-nAChRs (P17787 26-502): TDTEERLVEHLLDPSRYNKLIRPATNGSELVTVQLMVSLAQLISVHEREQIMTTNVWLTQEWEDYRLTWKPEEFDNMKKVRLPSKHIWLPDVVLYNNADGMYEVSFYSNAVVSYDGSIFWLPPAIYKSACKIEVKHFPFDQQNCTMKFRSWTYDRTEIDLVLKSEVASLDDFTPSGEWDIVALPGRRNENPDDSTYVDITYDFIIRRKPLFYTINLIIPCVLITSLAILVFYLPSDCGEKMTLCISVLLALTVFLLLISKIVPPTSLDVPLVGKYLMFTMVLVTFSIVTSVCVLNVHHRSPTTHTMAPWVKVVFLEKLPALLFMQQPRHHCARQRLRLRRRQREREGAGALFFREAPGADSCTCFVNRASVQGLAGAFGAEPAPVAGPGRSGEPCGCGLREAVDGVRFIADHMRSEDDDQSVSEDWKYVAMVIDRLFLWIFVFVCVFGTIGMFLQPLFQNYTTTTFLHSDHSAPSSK

With `COCC[C@H]1C[C@@H]1c1cncc(OC[C@@H]2CCN2)c1` [Compound 4], the “Ki α3β4” value in [1] was “NA (not active, defined as < 50% binding in the primary assay at 10 μM)”. Further, in data set [2], the “Inactivation α4β2 Efficacy” value is listed as 71 ± 5.5%.

Take `OCCCCC#Cc1cncc(OC[C@@H]2CCN2)c1` [saz-A, sazetidine-A]: the Ki in [3] is 210 nM; in [4], 0.17 nM; in data set [5], 0.38 nM; in data set [1] (read-out: Ki α3β4), 1900 nM; in data set [6], 0.062 nM; in [7], 0.087 nM. Further, in [8], the Ki was 52 nM.

With `COCC[C@H]1C[C@@H]1c1cncc(OC[C@H]2CCNC2)c1.O=C(O)C(F)(F)F` [Compound 30, 3-[(3(S)-Pyrrolidinyl)methoxy]-5-[(1S,2R)-2-(2-methoxyethyl)cyclopropyl]pyridine Trifluoroacetate], the abnormal behavioral effects entry in data set [9] (intraperitoneal, 5 mg/kg) was “sedation and tremor”.

Take `COCC[C@H]1C[C@@H]1c1cncc(OC[C@@H]2CCCN2C)c1.O=C(O)C(F)(F)F` [Compound 26, 3-[(1-Methyl-2(S)-pyrrolidinyl)methoxy]-5-[(1S,2R)-2-(2-methoxyethyl)cyclopropyl]pyridine Trifluoroacetate]: in data set [10], the chemical stability result was “little or no sign of decomposition”. The efflux ratio in [11] came out at 0.2. The permeability class result in data set [12] was “high permeability”. Also, the “minimal dose with significant reduction in immobility” value in data set [9] (in vivo, ip) came out at 1 mg/kg; in [9] (in vivo, po) it was 1 mg/kg. The “Ames test mutagenic potential” value in [13] was “positive significance”.

In the case of `CN[C@H]1CC[C@@H](c2ccc(Cl)c(Cl)c2)c2ccccc21` [sertraline, reference compound], the “effect on immobility (positive control)” value in [9] (20 mg/kg) is given as “expected decrease in immobility”.

As to `COCC[C@H]1C[C@@H]1c1cncc(OC[C@@H]2CCCN2)c1.O=C(O)C(F)(F)F` [Compound 24, 3-[(2(S)-Pyrrolidinyl)methoxy]-5-[(1S,2R)-2-(2-methoxyethyl)cyclopropyl]pyridine Trifluoroacetate], in data set [9] (in vivo), the “effect in the forced swim test” value is recorded as “no significant effects”.

The term Ki denotes the dissociation constant of the complex between target and ligand, obtained from inhibition or displacement. As usually defined, the efflux ratio is a quotient of directional permeabilities that is used to spot active efflux.
